Laboratory results taken from ChEMBL document CHEMBL2380255, “Dual targeting of adenosine A(2A) receptors and monoamine oxidase B by 4H-3,1-benzothiazin-4-ones” (J Med Chem, 2013).

Assays:
[1] = target: T1, Amine oxidase [flavin-containing] B (Homo sapiens, UniProt P27338); assay: Inhibition of recombinant human MAO-B expressed in baculovirus-infected insect cells using p-tyramine as substrate incubated for 30 mins prior to substrate addition measured for 45 mins by amplex red reagent-based microplate fluorescence reader analysis; format: cell-based
T1 sequence (P27338 whole entry): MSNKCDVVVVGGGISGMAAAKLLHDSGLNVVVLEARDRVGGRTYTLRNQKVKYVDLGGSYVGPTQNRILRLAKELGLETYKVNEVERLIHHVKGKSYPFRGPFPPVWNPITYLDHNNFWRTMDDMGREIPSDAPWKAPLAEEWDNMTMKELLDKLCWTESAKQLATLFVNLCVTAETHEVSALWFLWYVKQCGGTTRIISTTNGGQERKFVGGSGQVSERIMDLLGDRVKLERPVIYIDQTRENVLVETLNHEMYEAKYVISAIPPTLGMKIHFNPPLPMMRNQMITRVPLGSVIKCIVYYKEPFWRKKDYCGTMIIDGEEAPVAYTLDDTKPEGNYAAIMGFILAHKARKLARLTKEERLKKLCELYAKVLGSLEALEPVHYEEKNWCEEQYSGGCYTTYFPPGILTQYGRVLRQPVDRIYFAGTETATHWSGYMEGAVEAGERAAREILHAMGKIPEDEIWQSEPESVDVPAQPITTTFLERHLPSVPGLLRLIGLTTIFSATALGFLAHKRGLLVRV

[2] = target: T2, Amine oxidase [flavin-containing] B (Rattus norvegicus, UniProt P19643); assay: Inhibition of MAO-B in mitochondria-enriched Sprague-Dawley rat liver fractions using p-tyramine as substrate incubated for 30 mins prior to substrate addition measured for 45 mins by amplex red reagent-based microplate fluorescence reader analysis
T2 sequence (P19643 whole entry): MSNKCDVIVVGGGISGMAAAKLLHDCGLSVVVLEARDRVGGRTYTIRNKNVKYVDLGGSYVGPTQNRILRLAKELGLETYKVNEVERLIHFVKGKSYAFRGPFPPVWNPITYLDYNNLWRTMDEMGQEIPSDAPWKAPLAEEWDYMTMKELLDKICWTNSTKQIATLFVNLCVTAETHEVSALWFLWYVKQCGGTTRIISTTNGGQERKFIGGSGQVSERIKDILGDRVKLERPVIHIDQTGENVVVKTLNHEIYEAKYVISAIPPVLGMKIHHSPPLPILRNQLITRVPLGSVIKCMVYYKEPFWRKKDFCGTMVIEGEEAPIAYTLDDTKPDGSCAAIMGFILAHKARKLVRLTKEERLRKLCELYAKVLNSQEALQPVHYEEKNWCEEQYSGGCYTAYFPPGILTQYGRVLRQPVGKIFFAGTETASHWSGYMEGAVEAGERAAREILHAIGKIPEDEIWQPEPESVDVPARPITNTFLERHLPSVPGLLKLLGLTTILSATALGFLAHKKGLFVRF

Adenosine receptor A3 = target: T3, Adenosine receptor A3 (Homo sapiens, UniProt P0DMS8); assay: Displacement of [3H]PSB-11 from human recombinant adenosine A3 receptor expressed in CHO cells after 60 mins by liquid scintillation counting analysis; format: cell-based
T3 sequence (P0DMS8 whole entry): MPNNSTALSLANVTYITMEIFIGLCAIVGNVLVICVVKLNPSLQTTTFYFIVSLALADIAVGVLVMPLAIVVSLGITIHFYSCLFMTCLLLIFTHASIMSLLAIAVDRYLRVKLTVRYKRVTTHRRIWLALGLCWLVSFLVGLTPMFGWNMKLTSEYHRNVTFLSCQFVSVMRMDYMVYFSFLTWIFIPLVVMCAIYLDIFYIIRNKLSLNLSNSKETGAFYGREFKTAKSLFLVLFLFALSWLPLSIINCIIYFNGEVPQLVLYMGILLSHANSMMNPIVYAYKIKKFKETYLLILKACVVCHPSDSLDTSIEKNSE

Adenosine receptor A2b = target: T4, Adenosine receptor A2b (Homo sapiens, UniProt P29275); assay: Displacement of [3H]PSB-603 from human recombinant adenosine A2B receptor expressed in CHO cells after 75 mins by liquid scintillation counting analysis; format: cell-based
T4 sequence (P29275 whole entry): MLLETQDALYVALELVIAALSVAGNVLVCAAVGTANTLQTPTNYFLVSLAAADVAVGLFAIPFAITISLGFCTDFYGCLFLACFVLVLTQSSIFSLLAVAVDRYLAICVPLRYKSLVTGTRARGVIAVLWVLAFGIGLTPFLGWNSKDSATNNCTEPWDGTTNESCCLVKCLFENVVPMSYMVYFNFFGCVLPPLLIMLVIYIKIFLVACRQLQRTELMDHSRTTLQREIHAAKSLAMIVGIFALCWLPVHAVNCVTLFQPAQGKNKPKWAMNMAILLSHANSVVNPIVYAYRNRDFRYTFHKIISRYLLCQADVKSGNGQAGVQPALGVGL

Adenosine receptor A2a [3] = target: Adenosine receptor A2a (Rattus norvegicus, UniProt P30543); assay: Displacement of [3H]MSX2 from adenosine A2A receptor in rat brain striatal membranes after 30 mins by liquid scintillation counting analysis; format: cell membranes, Membrane
Chain of Adenosine receptor A2a (Rattus norvegicus, UniProt P30543) (P30543 whole entry): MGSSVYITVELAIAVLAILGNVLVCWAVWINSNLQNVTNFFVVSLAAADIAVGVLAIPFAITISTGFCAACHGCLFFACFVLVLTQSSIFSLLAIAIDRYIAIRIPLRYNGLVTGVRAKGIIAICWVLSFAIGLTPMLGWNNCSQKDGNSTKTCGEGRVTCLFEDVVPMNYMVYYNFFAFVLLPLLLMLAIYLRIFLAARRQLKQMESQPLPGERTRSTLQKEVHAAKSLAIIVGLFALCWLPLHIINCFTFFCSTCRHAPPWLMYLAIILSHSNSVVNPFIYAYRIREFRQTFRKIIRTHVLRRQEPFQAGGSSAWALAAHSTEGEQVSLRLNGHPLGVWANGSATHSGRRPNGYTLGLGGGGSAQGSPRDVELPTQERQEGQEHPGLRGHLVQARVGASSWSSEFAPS

Adenosine receptor A1 [4] = target: T5, Adenosine receptor A1 (Rattus norvegicus, UniProt P25099); assay: Displacement of [3H]CCPA from adenosine A1 receptor in rat brain cortical membranes after 90 mins by liquid scintillation counting analysis; format: cell membranes, Membrane
T5 sequence (P25099 whole entry): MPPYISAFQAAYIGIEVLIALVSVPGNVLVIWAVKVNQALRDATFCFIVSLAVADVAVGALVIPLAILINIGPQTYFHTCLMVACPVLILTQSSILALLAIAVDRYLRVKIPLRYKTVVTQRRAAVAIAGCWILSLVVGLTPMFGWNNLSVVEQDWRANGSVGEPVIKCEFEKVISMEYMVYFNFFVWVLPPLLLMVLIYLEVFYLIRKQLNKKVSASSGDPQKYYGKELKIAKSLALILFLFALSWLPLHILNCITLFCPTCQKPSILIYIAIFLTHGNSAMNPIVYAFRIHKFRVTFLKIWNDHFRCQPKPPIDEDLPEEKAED

[5] = Selectivity ratio of IC50 for MAO-B in mitochondria-enriched Sprague-Dawley rat liver fractions to IC50 for recombinant human MAO-B
Adenosine receptor A1 [6] = target: T6, Adenosine receptor A1 (Homo sapiens, UniProt P30542); assay: Displacement of [3H]CCPA from human recombinant adenosine A1 receptor expressed in CHO cells after 90 mins by liquid scintillation counting analysis; format: cell-based
T6 sequence (P30542 whole entry): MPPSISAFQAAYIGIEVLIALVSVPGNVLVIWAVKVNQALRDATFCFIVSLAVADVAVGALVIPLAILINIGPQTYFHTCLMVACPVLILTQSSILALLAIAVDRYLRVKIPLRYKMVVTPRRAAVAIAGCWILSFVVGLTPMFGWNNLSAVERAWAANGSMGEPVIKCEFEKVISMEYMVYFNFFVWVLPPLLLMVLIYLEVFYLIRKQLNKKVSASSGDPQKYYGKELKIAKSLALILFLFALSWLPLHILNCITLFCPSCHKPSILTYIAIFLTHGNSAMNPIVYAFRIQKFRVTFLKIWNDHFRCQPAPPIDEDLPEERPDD

Adenosine receptor A2a [7] = target: Adenosine receptor A2a (Homo sapiens, UniProt P29274); assay: Displacement of [3H]MSX2 from human recombinant adenosine A2A receptor expressed in CHO cells after 30 mins by liquid scintillation counting analysis; format: cell-based
Chain of Adenosine receptor A2a (Homo sapiens, UniProt P29274) (P29274 whole entry): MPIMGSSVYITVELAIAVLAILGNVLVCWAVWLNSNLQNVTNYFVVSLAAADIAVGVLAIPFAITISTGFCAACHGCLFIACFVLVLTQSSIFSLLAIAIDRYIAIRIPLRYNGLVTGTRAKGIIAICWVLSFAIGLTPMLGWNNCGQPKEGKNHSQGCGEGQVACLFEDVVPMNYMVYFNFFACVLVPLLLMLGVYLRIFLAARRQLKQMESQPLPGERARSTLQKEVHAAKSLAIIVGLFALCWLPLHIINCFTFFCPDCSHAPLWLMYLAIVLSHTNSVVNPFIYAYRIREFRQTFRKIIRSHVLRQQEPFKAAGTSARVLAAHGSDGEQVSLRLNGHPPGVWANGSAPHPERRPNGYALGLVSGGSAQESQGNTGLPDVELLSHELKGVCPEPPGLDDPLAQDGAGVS

Row | SMILES | IC50 [1] [nM] | IC50 [2] [nM] | Ki (Adenosine receptor A3) [nM] | Ki (Adenosine receptor A2b) [nM] | Ki (Adenosine receptor A2a [3]) [nM] | Ki (Adenosine receptor A1 [4]) [nM] | Ratio IC50 [5] | Ki (Adenosine receptor A1 [6]) [nM] | Ki (Adenosine receptor A2a [7]) [nM]
1 | O=C(C/C=C/c1ccc(Cl)c(Cl)c1)Nc1nc2ccccc2c(=O)s1 | > 10000 | 4640 | > 1000 | > 1000 | > 1000 | ≥ 1500 | – | – | –
2 | O=C(CCc1ccccc1Br)Nc1nc2ccccc2c(=O)s1 | 2.09 | 64 | > 1000 | > 1000 | > 10000 | > 10000 | 31 | – | –
3 | O=C(CCCc1ccccc1)Nc1nc2ccsc2c(=O)s1 | 206 | 298 | > 1000 | 547 | > 10000 | ≥ 10000 | 1.4 | – | –
4 | O=C(CCCc1ccccc1)Nc1nc2cc(Cl)ccc2c(=O)s1 | 76.4 | 1220 | 91.6 | > 1000 | ≥ 10000 | 64.4 | 1.4 | 785 | –
5 | O=C(CCCc1cccc(Cl)c1)Nc1nc2ccccc2c(=O)s1 | > 1000 | 6880 | > 1000 | ≥ 1000 | > 10000 | 898 | 1.4 | > 10000 | –
6 | O=C(Nc1nc2ccccc2c(=O)s1)c1ccc(C(=O)N2CCN(Cc3cccc(Cl)c3)CC2)cc1 | > 10000 | – | > 1000 | > 1000 | 84.7 | – | 1.4 | > 1000 | 58.3
7 | Cc1sc2nc(NC(=O)CCCc3ccccc3)sc(=O)c2c1C | 9.8 | 26.6 | > 1000 | > 1000 | > 10000 | > 10000 | 1.4 | – | –
8 | CN(C(=O)CCCc1ccccc1)c1nc2ccccc2c(=O)s1 | 53.1 | – | > 1000 | > 1000 | > 10000 | > 10000 | 1.4 | – | > 10000
9 | O=C(/C=C/c1cccc(Cl)c1)Nc1nc2ccccc2c(=O)s1 | 93.3 | 815 | > 1000 | > 1000 | > 10000 | ≥ 10000 | 1.4 | – | > 1000
10 | O=C(CCCc1ccc(Cl)c(Cl)c1)Nc1nc2ccccc2c(=O)s1 | 3440 | 3300 | > 1000 | > 1000 | > 10000 | > 1500 | – | – | –
11 | O=C(CCc1ccc(Cl)c(Cl)c1)Nc1nc2ccccc2c(=O)s1 | > 10000 | > 10000 | > 1000 | > 1000 | > 10000 | > 1500 | 1.4 | – | –
12 | O=C(Nc1nc2ccccc2c(=O)s1)c1ccccc1 | – | > 10000 | – | – | – | – | 1.4 | – | –
13 | O=C(CCCc1ccccc1)Nc1nc2ccc(Br)cc2c(=O)s1 | > 10000 | > 10000 | > 1000 | > 1000 | > 10000 | > 10000 | 1.4 | – | –
14 | Cc1ccc2nc(NC(=O)CCCc3ccccc3)sc(=O)c2c1 | 94 | 325 | 147 | 408 | 6060 | 98.3 | 1.4 | 1000 | –
15 | O=C(Nc1nc2ccccc2c(=O)s1)c1ccc(C(=O)N2CCN(Cc3ccccc3)CC2)cc1 | > 10000 | – | – | – | – | – | 1.4 | – | –
16 | O=C(CCc1ccccc1F)Nc1nc2ccccc2c(=O)s1 | 11.2 | 725 | ≥ 1000 | 801 | 2190 | > 10000 | 65 | – | –
17 | O=C(CCCc1ccccc1)Nc1nc2ccc(Cl)cc2c(=O)s1 | > 10000 | > 10000 | > 1000 | > 1000 | > 10000 | > 10000 | 1.4 | – | –
18 | COc1cccc(C#CC(=O)Nc2nc3ccccc3c(=O)s2)c1 | 43.7 | 73.9 | > 1000 | > 1000 | 1720 | > 10000 | 1.4 | – | ≥ 1000
